{
  "source": "BindingDB's records for doi:10.1021/jm9800245",
  "about": "(F. Hoffmann-La Roche, 1998)",
  "key": {"[1]": {"experiment": "Inhibition of beta-lactamase of Escherichia coli TEM-3 […]"}, "[2]": {"target": "Beta-lactamase AmpC (Pseudomonas aeruginosa)", "experiment": "Inhibition of beta-lactamase of Pseudomonas aeruginosa 18 SH (class C)"}},
  "note": "Counter-ions that a name gives are not always drawn.",
  "data": [
    {"compound": "NC(=O)c1ccc(NC(=O)N2CC[C@@H]3C2C(=O)N3S(=O)(=O)O)cc1", "note": "(stereo partly drawn) [(2S,5R)-2-(4-Carbamoyl-phenylcarbamoyl)-7-oxo-2,6-diaza-bicyclo[3.2.0]heptane-6-sulfonic acid]", "values": [
      {"measurement": "IC50", "setting": "[1]", "result": 9000, "unit": "µM"},
      {"measurement": "IC50", "setting": "[2]", "result": 0.217, "unit": "µM"}
    ]},
    {"compound": "CC(C)(C)OC(=O)N1CC[C@@H]2C1C(=O)N2S(=O)(=O)O", "note": "(stereo partly drawn) [(2S,5R)-7-Oxo-6-sulfo-2,6-diaza-bicyclo[3.2.0]heptane-2-carboxylic acid tert-butyl ester]", "values": [
      {"measurement": "IC50", "setting": "[1]", "result": "> 1000", "unit": "µM"},
      {"measurement": "IC50", "setting": "[2]", "result": 1.5, "unit": "µM"}
    ]},
    {"compound": "NC(=O)c1ccc(NC(=O)N2CCC3C2C(=O)N3OS(=O)(=O)O)cc1", "note": "(configuration not stated) [sodium salt-Sulfuric acid mono-[2-(4-carbamoyl-phenylcarbamoyl)-7-oxo-2,6-diaza-bicyclo[3.2.0]hept-6-yl] ester]", "values": [
      {"measurement": "IC50", "setting": "[2]", "result": 0.026, "unit": "µM"}
    ]},
    {"compound": "CC(C)(C)OC(=O)N1CCC2C1C(=O)N2OS(=O)(=O)O", "note": "(configuration not stated) [sodium salt-tert-butyl 7-oxo-6-(sulfooxy)-2,6-diazabicyclo[3.2.0]heptane-2-carboxylate]", "values": [
      {"measurement": "IC50", "setting": "[1]", "result": 0.165, "unit": "µM"},
      {"measurement": "IC50", "setting": "[2]", "result": 0.028, "unit": "µM"}
    ]}
  ]
}
